Experimental data as given in US20230382924A1, “MODULATORS OF CYSTIC FIBROSIS TRANSMEMBRANE CONDUCTANCE REGULATOR” (VERTEX PHARMACEUTICALS INCORPORATED, priority 2020, published 2023).
Like-named read-outs stand apart in the source and are kept apart here.

Molecular target: CFTR (Homo sapiens, UniProt P13569)
Experiment: Membrane Potential Dye, Enteroid Assay A
Type: cell-based
Conditions: for EC50: read-out: Ent. A EC50
In short: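 Enteroid cells were loaded with methyl oxonol membrane potential dye (plus CaCCinh-A01 and Chicago Sky Blue) for 25 min at room temperature. Chloride transport was started by switching to chloride-free gluconate stimulation solution, with fluorescence read for 15 min. Activity was expressed as % of a triple-combination CFTR modulator control (3 μM, 3 μM, 300 nM acute).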

Sequence of CFTR (P13569 with tags, fused parts or gaps DEL508-508): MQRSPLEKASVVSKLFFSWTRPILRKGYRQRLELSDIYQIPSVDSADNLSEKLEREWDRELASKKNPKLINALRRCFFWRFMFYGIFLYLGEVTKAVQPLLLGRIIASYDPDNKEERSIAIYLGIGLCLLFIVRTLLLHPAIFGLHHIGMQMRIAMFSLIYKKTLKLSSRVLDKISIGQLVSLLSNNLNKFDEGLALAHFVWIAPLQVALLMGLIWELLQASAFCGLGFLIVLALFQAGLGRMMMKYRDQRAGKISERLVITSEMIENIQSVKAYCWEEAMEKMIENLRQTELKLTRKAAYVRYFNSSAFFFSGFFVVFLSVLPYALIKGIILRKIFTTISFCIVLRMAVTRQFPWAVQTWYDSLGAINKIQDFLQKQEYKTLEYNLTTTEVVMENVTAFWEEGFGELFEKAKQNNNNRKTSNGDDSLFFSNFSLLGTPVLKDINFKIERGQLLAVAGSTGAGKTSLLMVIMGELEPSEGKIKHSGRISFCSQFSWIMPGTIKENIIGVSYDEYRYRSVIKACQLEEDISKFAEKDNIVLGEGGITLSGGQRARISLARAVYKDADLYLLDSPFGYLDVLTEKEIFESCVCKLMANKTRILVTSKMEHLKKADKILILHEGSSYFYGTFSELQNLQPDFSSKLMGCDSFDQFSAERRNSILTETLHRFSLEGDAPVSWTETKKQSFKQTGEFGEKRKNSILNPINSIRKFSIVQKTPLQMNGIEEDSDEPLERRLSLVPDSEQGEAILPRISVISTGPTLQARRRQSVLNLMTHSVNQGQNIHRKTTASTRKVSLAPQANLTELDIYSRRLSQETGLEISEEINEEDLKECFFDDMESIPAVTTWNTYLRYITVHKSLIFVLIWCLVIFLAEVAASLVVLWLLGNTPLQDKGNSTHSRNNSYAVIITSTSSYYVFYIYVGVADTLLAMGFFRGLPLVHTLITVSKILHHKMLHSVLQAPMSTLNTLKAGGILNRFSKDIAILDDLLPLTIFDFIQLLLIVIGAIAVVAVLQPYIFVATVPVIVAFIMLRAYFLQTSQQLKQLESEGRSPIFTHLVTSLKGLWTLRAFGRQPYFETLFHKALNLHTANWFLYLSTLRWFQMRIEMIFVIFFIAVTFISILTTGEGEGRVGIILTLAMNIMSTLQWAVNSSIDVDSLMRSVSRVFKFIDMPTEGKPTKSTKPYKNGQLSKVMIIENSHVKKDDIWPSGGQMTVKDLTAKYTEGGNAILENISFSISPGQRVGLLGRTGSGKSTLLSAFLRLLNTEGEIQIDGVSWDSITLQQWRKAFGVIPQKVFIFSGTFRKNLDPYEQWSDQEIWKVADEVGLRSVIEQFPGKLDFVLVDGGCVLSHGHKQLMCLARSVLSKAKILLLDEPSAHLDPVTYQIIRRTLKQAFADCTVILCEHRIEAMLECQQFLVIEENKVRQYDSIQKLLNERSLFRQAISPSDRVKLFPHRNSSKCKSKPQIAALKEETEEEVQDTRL

Cc1cccc(C)c1-c1cc2nc(n1)NS(=O)(=O)c1cccc(c1)CN[C@H](CC(C)C)CO2 [Compound 240] was tested, and the “Ent. A Max Activity” value (Table 9) was “++ (++ is 30-60%)” and the EC50 (Table 9) was 3000 to 30000 nM.

Cc1cccc(C)c1-c1cc2nc(n1)NS(=O)(=O)c1cccc(c1)C(=O)N[C@H]1CCN(CCC(C)(C)C)C[C@H]1O2 (single isomer, unassigned) [Compound 90, 5-(3,3-dimethylbutyl)-20-(2,6-dimethylphenyl)-2-oxa-16λ^6-thia-5,9,17,19,22-pentaazatetracyclo[16.3.1.111,15.03,8]tricosa-1(21),11(23),12,14,18(22),19-hexaene-10,16,16-trione] was tested, and the “Ent. A Max Activity” value (Table 9) was “+++ (+++ is >60%)” and the EC50 (Table 9) was 1000 to 3000 nM.

For Cc1cccc(C)c1-c1cc2nc(n1)NS(=O)(=O)c1cccc(c1)C(=O)NC(C(=O)NC(C)(C)C)CO2 (stereo not drawn) [Compound 66, N-tert-butyl-6-(2,6-dimethylphenyl)-2,2,13-trioxo-9-oxa-2λ^6-thia-3,5,12,19-tetrazatricyclo[12.3.1.14,8]nonadeca-1(18),4(19),5,7,14,16-hexaene-11-carboxamide], the “Ent. A Max Activity” value (Table 8) was “+ (+ is <30%)”.

In the case of CCOc1ccccc1-c1cc2nc(n1)NS(=O)(=O)c1cccc(c1)C(=O)N[C@H](CC(C)C)CO2 [Compound 328], the “Ent. A Max Activity” value (Enteroid Assay A) is reported as “++ (++ is 30-60%)” and the EC50 (Enteroid Assay A) is reported as 1000 to 3000 nM.

Work on Cc1cccc(C)c1-c1cc2nc(n1)NS(=O)(=O)c1cccc(c1)C(=O)NCC1(CCN(Cc3ccccc3)CC1)CO2 [Compound 442] yielded an EC50 (Enteroid Assay A) of 3000 to 30000 nM.

In the case of Cc1cccc(C)c1-c1cc2nc(n1)NS(=O)(=O)c1cccc(c1)C(=O)NCC(C13CC4CC(CC(C4)C1)C3)O2 (stereo not drawn) [Compound 244], the EC50 (Table 8) is reported as < 1000 nM.

In the case of Cc1ccccc1[C@H]1CNC(=O)c2cccc(c2)S(=O)(=O)Nc2nc(cc(-c3c(C)cccc3C)n2)O1 (stereo in doubt) [Compound 277], the “Ent. A Max Activity” value (Table 8) is reported as “+ (+ is <30%)”.

For Cc1cccc(C)c1-c1cc2nc(n1)NS(=O)(=O)c1cccc(c1)C(=O)NC1(CCC(C(C)(C)C)CC1)CO2 (stereo not drawn) [Compound 495], the “Ent. A Max Activity” value (Table 9) was “+++ (+++ is >60%)” and the EC50 (Table 9) was < 1000 nM.

In the case of Cc1cccc(C)c1-c1cc2nc(n1)NS(=O)(=O)c1cccc(c1)C(=O)NCC(c1ccc(-c3ccccc3)cc1)O2 (stereo not drawn) [Compound 231], the EC50 (Table 8) is reported as < 1000 nM.

For Cc1cccc(C)c1-c1cc2nc(n1)NS(=O)(=O)c1cccc(c1)C(=O)NC[C@@H](c1ccc(C3CC3)cc1)O2 [Compound 261], the “Ent. A Max Activity” value (Table 9) was “++ (++ is 30-60%)” and the EC50 (Table 9) was 1000 to 3000 nM.

In the case of CC(C)C[C@@H]1COc2cc(C3=CCCCC3)nc(n2)NS(=O)(=O)c2cccc(c2)C(=O)N1 [Compound 327], the “Ent. A Max Activity” value (Enteroid Assay A) is reported as “++ (++ is 30-60%)” and the EC50 (Enteroid Assay A) is reported as 1000 to 3000 nM.

Cc1cccc(C)c1-c1cc2nc(n1)NS(=O)(=O)c1cccc(c1)C(=O)NC[C@@H](c1ccc(C(C)(C)C)cn1)O2 (single isomer, unassigned) [Compound 8, 10-(5-tert-butyl-2-pyridyl)-6-(2,6-dimethylphenyl)-2,2-dioxo-9-oxa-2λ^6-thia-3,5,12,19-tetrazatricyclo[12.3.1.14,8]nonadeca-1(18),4(19),5,7,14,16-hexaen-13-one] was tested, and the “Ent. A Max Activity” value (Table 8) was “+ (+ is <30%)”.

Cc1cccc(C)c1-c1cc2nc(n1)NS(=O)(=O)c1cccc(c1)C(=O)NCC1(CCN(C(=O)[C@H]3[C@H](c4ccccc4)C3(C)C)CC1)CO2 [Compound 465] was tested, and the “Ent. A Max Activity” value (Enteroid Assay A) was “++ (++ is 30-60%)” and the EC50 (Enteroid Assay A) was 1000 to 3000 nM.

For Cc1cccc(C)c1-c1cc2nc(n1)NS(=O)(=O)c1cccc(c1)C(=O)N[C@@H]1CCN(Cc3ccc(C(C)(C)C)cc3)C[C@@H]1O2 (single isomer, unassigned) [Compound 91, 5-[(4-tert-butylphenyl)methyl]-20-(2,6-dimethylphenyl)-2-oxa-16λ^6-thia-5,9,17,19,22-pentaazatetracyclo[16.3.1.111,15.03,8]tricosa-1(21),11(23),12,14,18(22),19-hexaene-10,16,16-trione], the “Ent. A Max Activity” value (Table 9) was “+++ (+++ is >60%)” and the EC50 (Table 9) was < 1000 nM.

CCC1CCC(c2cc3nc(n2)NS(=O)(=O)c2cccc(c2)C(=O)N[C@H](CC(C)C)CO3)CC1 (stereo partly drawn) [Compound 310] was tested, and the EC50 (Table 8) was < 1000 nM.

In the case of Cc1ccccc1[C@@H]1CNC(=O)c2cccc(c2)S(=O)(=O)Nc2nc(cc(-c3c(C)cccc3C)n2)O1 [Compound 276], the EC50 (Table 8) is reported as < 1000 nM.

With Cc1cccc(C)c1-c1cc2nc(n1)NS(=O)(=O)c1cc(cc(C3=CCCCC3)c1)C(=O)N[C@H](CC(C)C)CO2 [Compound 139] the “Ent. A Max Activity” value (Table 8) was “+ (+ is <30%)”.

CC[C@@H]1COc2cc(-c3c(C)cccc3C)nc(n2)NS(=O)(=O)c2cccc(c2)C(=O)N1 [Compound 353] was tested, and the “Ent. A Max Activity” value (Enteroid Assay A) was “++ (++ is 30-60%)” and the EC50 (Enteroid Assay A) was 3000 to 30000 nM.

CC[C@H]1NC(=O)c2cccc(c2)S(=O)(=O)Nc2nc(cc(-c3c(C)cccc3C)n2)O[C@@H]1c1ccc(C(C)(C)C)cc1 [Compound 133] was tested, and the “Ent. A Max Activity” value (Table 9) was “+++ (+++ is >60%)” and the EC50 (Table 9) was < 1000 nM.

With Cc1cccc(C)c1-c1cc2nc(n1)NS(=O)(=O)c1cccc(c1)C(=O)NCC(Cc1ccc(C(C)(C)C)cc1)O2 (stereo not drawn) [Compound 242] the EC50 (Table 8) was < 1000 nM.

In the case of COc1ccc(C)c(-c2cc3nc(n2)NS(=O)(=O)c2cccc(c2)C(=O)N[C@H](CC(C)C)CO3)c1 [Compound 302], the “Ent. A Max Activity” value (Table 8) is reported as “+++ (+++ is >60%)” and the EC50 (Table 8) is reported as 1000 to 3000 nM.

With Cc1cccc(C)c1-c1cc2nc(n1)NS(=O)(=O)c1cccc(c1)C(=O)NC[C@H](c1ccc(CCC(C)(C)C)cc1)O2 (stereo in doubt) [Compound 148] the “Ent. A Max Activity” value (Table 9) was “++ (++ is 30-60%)” and the EC50 (Table 9) was < 1000 nM.

For Cc1cccc(C)c1-c1cc2nc(n1)NS(=O)(=O)c1cccc(c1)C(=O)NCC1(CCN(C(=O)c3cc4ccccc4n3CC#N)CC1)CO2 [Compound 452], the “Ent. A Max Activity” value (Enteroid Assay A) was “++ (++ is 30-60%)” and the EC50 (Enteroid Assay A) was 1000 to 3000 nM.

For CCC[C@H]1NC(=O)c2cccc(c2)S(=O)(=O)Nc2nc(cc(-c3c(C)cccc3C)n2)O[C@@H]1c1ccc(C(C)(C)C)cc1 [Compound 227], the “Ent. A Max Activity” value (Table 9) was “+++ (+++ is >60%)” and the EC50 (Table 9) was < 1000 nM.

For Cc1cccc(C)c1-c1cc2nc(n1)NS(=O)(=O)c1cccc(c1)C(=O)NCC(c1ccc(CC[Si](C)(C)C)cc1)O2 (stereo not drawn) [Compound 127], the EC50 (Table 9) was < 1000 nM.

With Cc1cccc(C)c1-c1cc2nc(n1)NS(=O)(=O)c1cccc(c1)C(=O)NCC(c1ccc(C34CC(C3)C4)cc1)O2 (stereo not drawn) [Compound 398] the “Ent. A Max Activity” value (Table 9) was “+++ (+++ is >60%)” and the EC50 (Table 9) was < 1000 nM.

For CC(C)C[C@@H]1COc2cc(-c3ccccc3OCC3CC3)nc(n2)NS(=O)(=O)c2cccc(c2)C(=O)N1 [Compound 344], the “Ent. A Max Activity” value (Enteroid Assay A) was “++ (++ is 30-60%)” and the EC50 (Enteroid Assay A) was 1000 to 3000 nM.

Cc1cccc(C)c1-c1cc2nc(n1)NS(=O)(=O)c1cccc(c1)C(=O)NCC1(CCN(C(=O)CC(C)(C)C)CC1)CO2 [Compound 481] was tested, and the “Ent. A Max Activity” value (Enteroid Assay A) was “++ (++ is 30-60%)”.

With Cc1cccc(C)c1-c1cc2nc(n1)NS(=O)(=O)c1cccc(c1)CNC1C[C@@H](CN(C(=O)OCc3ccccc3)C1)O2 (stereo in doubt) [Compound 192] the “Ent. A Max Activity” value (Enteroid Assay A) was “++ (++ is 30-60%)” and the EC50 (Enteroid Assay A) was 1000 to 3000 nM.

In the case of Cc1cccc(C)c1-c1cc2nc(n1)NS(=O)(=O)c1ccccc1C(=O)NC(CC(C)C)CO2 (stereo not drawn) [Compound 223], the “Ent. A Max Activity” value (Table 9) is reported as “+ (+ is <30%)”.

With Cc1cccc(C)c1-c1cc2nc(n1)NS(=O)(=O)c1cccc(c1)C(=O)N[C@@H]1CN(C3CCC4(CC3)CC4)CC[C@H]1O2 [Compound 374] the “Ent. A Max Activity” value (Table 9) was “+++ (+++ is >60%)” and the EC50 (Table 9) was 1000 to 3000 nM.

Cc1cccc(C)c1-c1cc2nc(n1)NS(=O)(=O)c1cccc(c1)C(=O)N[C@H](CC1CCC(F)(F)CC1)CO2 [Compound 187] was tested, and the “Ent. A Max Activity” value (Table 8) was “+++ (+++ is >60%)” and the EC50 (Table 8) was < 1000 nM.

In the case of CCCCC1(CCCC)COc2cc(-c3c(C)cccc3C)nc(n2)NS(=O)(=O)c2cccc(c2)C(=O)N1 [Compound 185], the “Ent. A Max Activity” value (Table 9) is reported as “+++ (+++ is >60%)” and the EC50 (Table 9) is reported as < 1000 nM.

For Cc1cnn(C)c1-c1cc2nc(n1)NS(=O)(=O)c1cccc(c1)C(=O)N[C@H](CC(C)C)CO2 [Compound 179], the “Ent. A Max Activity” value (Table 9) was “++ (++ is 30-60%)” and the EC50 (Table 9) was 3000 to 30000 nM.

In the case of Cc1cccc(C)c1-c1cc2nc(n1)NS(=O)(=O)c1cccc(c1)C(=O)NC1c3ccccc3CC1O2 (stereo not drawn) [Compound 489], the “Ent. A Max Activity” value (Enteroid Assay A) is reported as “+++ (+++ is >600%)” and the EC50 (Enteroid Assay A) is reported as < 1000 nM.

Cc1cccc(C)c1-c1cc2nc(n1)NS(=O)(=O)c1cccc(c1)C(=O)NC1CC(CN(CCC(C)(C)C3CC3)C1)O2 (stereo not drawn) [Compound 195] was tested, and the EC50 (Enteroid Assay A) was < 1000 nM.

With Cc1cccc(C)c1-c1cc2nc(n1)NS(=O)(=O)c1cccc(c1)C(=O)N[C@H]1CCCC[C@H]1O2 [Compound 364] the “Ent. A Max Activity” value (Enteroid Assay A) was “++ (++ is 30-60%)” and the EC50 (Enteroid Assay A) was 3000 to 30000 nM.

Cc1cccc(C)c1-c1cc2nc(n1)NS(=O)(=O)c1cccc(c1)C(=O)NC[C@@H](c1ccc(C3CC3)cc1)O2 [Compound 260] was tested, and the “Ent. A Max Activity” value (Table 9) was “+++ (+++ is >60%)” and the EC50 (Table 9) was < 1000 nM.

Cc1cccc(C)c1-c1cc2nc(n1)NS(=O)(=O)c1cccc(c1)C(=O)NCC(c1ccc([Si](C)(C)C)cc1)O2 (single isomer, unassigned) [Compound 16, 6-(2,6-Dimethylphenyl)-2,2-dioxo-10-(4-trimethylsilylphenyl)-9-oxa-2λ^6-thia-3,5,12,19-tetrazatricyclo[12.3.1.14,8]nonadeca-1(18),4(19),5,7,14,16-hexaen-13-one] was tested, and the EC50 (Table 9) was < 1000 nM.

For COc1ccc2c(c1)c(C(=O)N1CCC3(CC1)CNC(=O)c1cccc(c1)S(=O)(=O)Nc1nc(cc(-c4c(C)cccc4C)n1)OC3)c(C)n2C1CC1 [Compound 451], the “Ent. A Max Activity” value (Enteroid Assay A) was “++ (++ is 30-60%)” and the EC50 (Enteroid Assay A) was 3000 to 30000 nM.

With Cc1cccc(C)c1-c1cc2nc(n1)NS(=O)(=O)c1cccc(c1)C(=O)NC[C@@H](c1ccccn1)O2 [Compound 233] the “Ent. A Max Activity” value (Table 8) was “+ (+ is <30%)”.

In the case of CC(C)C[C@@H]1COc2cc(C3CC4CCC3(C)C4(C)C)nc(n2)NS(=O)(=O)c2cccc(c2)C(=O)N1 (stereo partly drawn) [Compound 311], the EC50 (Table 8) is reported as < 1000 nM.

In the case of Cc1cccc(C)c1-c1cc2nc(n1)NS(=O)(=O)c1cccc(c1)C(=O)NCC1(CCN(C(=O)[C@]3(C)CCCN3C(=O)OC(C)(C)C)CC1)CO2 [Compound 472], the “Ent. A Max Activity” value (Enteroid Assay A) is reported as “++ (++ is 30-60%)” and the EC50 (Enteroid Assay A) is reported as 3000 to 30000 nM.
